# Measured values reported in paper PMC4600319 (Malaria Journal, 2015).
# Where two headings read alike, the source gives them in different places.
# Experiments:
# [1] = previous report, healthy Thai volunteers; cited from earlier work
# [2] = Open-label, three-way, sequential, cross-over pharmacokinetic interaction study, plasma, non-compartmental analysis; assay type: in vivo, human (healthy Thai adults); conditions: for plasma concentration 1 h post-dose on Day 3: median; for Tmax / AUC(0-t) / half-life / AUC(0-inf) / Cmax: both sexes, human, oral, plasma, median (95 % CI); for Tmax: read-out: tmax; for AUC(0-t): read-out: AUC0–24h; for half-life: read-out: t1/2z (converted); for Cmax: read-out: Cmax
# Protocol: This was an open-label, three-way, sequential, cross-over, pharmacokinetic study in healthy adult volunteers. […] Written informed consent for study participation was obtained from each subject before study. […] Consenting adults were screened for eligibility and a physical examination, electrocardiogram (ECG), and laboratory safety tests (haematology, biochemistry, urinalysis, and pregnancy status) were performed. Figure 1 summarizes the study design. The pharmacokinetic sampling was performed sequentially on three occasions. […] Ltd., China). Mefloquine doses were given as three tablets on Day 1 and two tablets on Day 2 (250 mg mefloquine per tablet, manufactured by Atlantic Pharmaceutical Ltd., China). There was a 2-months wash-out period between Period 1 and Period 2. Period 2: subjects received oral doses of LPV/r (400/100 mg), twice daily, for 14 days (27 doses). There was no washout between Period 2 and Period 3. […] Immediately after collection, all blood samples were centrifuged (1200×g, 10 min) and the plasma samples were stored at -80 °C until analysis. […] University. […] An Agilent 1260 LC system (Agilent Technologies, CA, USA) coupled with an API 5000 triple quadrupole mass spectrometer (Applied Biosystems/MDS SCIEX, Foster City, USA), with a TurboVTM ionization source (TIS) interface operated in the positive ion mode, was used for the multiple reaction monitoring LC-MS/MS analysis. […] Nitrogen gas was supplied from an AB-3G (Peak Scientific, Inchinnan, UK). […] Chromatographic separation was performed using an […] XDB C18 column (5 μm, 4.6 mm × 150 mm; Thermo Fisher Scientific, MA, USA) protected with an Eclipse XDB-C8 guard column (Thermo Electron Corporation, MA, USA). The gradient mobile phase consisted of a mixture of 10 mM ammonium acetate with 0.1 % glacial acetic acid and acetonitrile running at a flow rate of 0.7 mL/min. Total run time was 12 min. […] Measurement of plasma concentrations of mefloquine was performed using high performance liquid chromatography (HPLC) according to the method of Karbwang et al. with modifications. Chromatographic separation was performed on a Hypersil ODS column (5 μm, 4.6 mm × 250 mm; Thermo Fisher Scientific, MA, USA) protected with an Eclipse XDB-C8 guard column (Thermo Electron Corporation, MA, USA). […] The UV detector was set at the wavelength of 220 nm. […] This laboratory participates in the NIAID Clinical Pharmacology Quality Assurance Programme Proficiency Testing. Pharmacokinetic parameters were determined using a non-compartmental analysis using WinNonLin software (version 6.3, […], USA). […] The Cmax (maximum concentration); tmax (time of maximum concentration) were determined by direct inspection of the plasma concentration-time data. […] The extrapolated AUC from the last sampling time to infinity was estimated from Ct/elimination rate constant (lz). lz was calculated from at least five concentration-time points of elimination phase. Apparent oral clearance (CL/F) was calculated as dose/AUC0-∞. Volume of distribution (Vz/F) was calculated as CL/F/lz, and the terminal half-life (t1/2z) was calculated as 0.693/lz. […] Statistical analysis of the data was performed using SPSS version 16.0 (Gorichem, The Netherlands). Pharmacokinetic parameters are presented as median and 95 % confidence intervals (95 % CI). […] Comparison of the frequency of subjects with adverse events between the two groups was performed using a Chi-square test. Statistical significance level was set at a = 0.05 for all tests.
# [3] = 3-day artesunate-mefloquine alone (Period 1)
# [4] = 3-day artesunate-mefloquine with LPV/r (Period 3)
# [5] = in the presence of LPV/r vs alone
# [6] = in the presence of steady-state LPV/r vs alone
smiles,measurement,setting,value
"C[C@H]1[C@@H](O)O[C@@H]2O[C@@]3(C)CC[C@H]4[C@H](C)CC[C@@H]1[C@@]24OO3 [Dihydroartemisinin, dihydroartemisinin]",t1/2z,[1],0.74 h
same,reduction in the AUC,[2]; LPV/r co-administration,50%
same,plasma concentration 1 h post-dose on Day 3,[2]; artesunate given with LPV/r,310 ng/mL
same,plasma concentration 1 h post-dose on Day 3,[2]; artesunate-mefloquine without LPV/r,580 ng/mL
same,Tmax,[2]; 3-day artesunate-mefloquine with LPV/r 400/100 mg twice a day (Period 3),2 h
same,AUC(0-t),[2]; [3],2370 ng·h/mL
same,half-life,[2]; [3],4.02 h
same,AUC(0-inf),[2]; [3],2680 ng·h/mL
same,AUC(0-t),[2]; [4],990 ng·h/mL
same,Cmax,[2]; [4],310 ng/mL
same,half-life,[2]; [4],9.99 h
same,AUC(0-inf),[2]; [4],1370 ng·h/mL
same,Cmax,"[2]; po, 3-day artesunate-mefloquine alone (Period 1)",580 ng/mL
same,Tmax,[2]; [3],2 h
same,90 % CI of the GMR of AUC0−24h vs bioequivalent range of 0.8-1.25,[2]; combination vs alone,outside the acceptable bioequivalent range
same,90 % CI of the GMR of Cmax vs bioequivalent range of 0.8-1.25,[2]; combination vs alone,outside the acceptable bioequivalent range
same,decrease in AUC0-24 h (as nmol h/mL) relative to the increase in artesunate AUC,[2]; in the presence of LPV/r,about 180%
same,decrease in AUC0−∞,[2]; [5],~48.8%
same,decrease in Cmax,[2]; [5],about 46.6%
same,decrease in AUC0−24h,[2]; [6],~58.2%
same,increase in t1/2z,[2]; [6],148.5%
same,extrapolated AUC from the last blood sampling time to infinity (AUCt−∞),[2]; in vivo,less than 5%
same,inter-individual variability in AUC0−24h,[2]; in vivo,80.2%
same,t1/2z GMR (90 % CI),"[2]; with LPV/r vs alone, geometric mean ratio","1.89 (1.00, 3.58)"
